In experiment [1] the target is T1, Adrenergic receptor alpha-2 (Rattus norvegicus, UniProt P22086+P19328+P22909).
T1 sequence (P22086 whole entry): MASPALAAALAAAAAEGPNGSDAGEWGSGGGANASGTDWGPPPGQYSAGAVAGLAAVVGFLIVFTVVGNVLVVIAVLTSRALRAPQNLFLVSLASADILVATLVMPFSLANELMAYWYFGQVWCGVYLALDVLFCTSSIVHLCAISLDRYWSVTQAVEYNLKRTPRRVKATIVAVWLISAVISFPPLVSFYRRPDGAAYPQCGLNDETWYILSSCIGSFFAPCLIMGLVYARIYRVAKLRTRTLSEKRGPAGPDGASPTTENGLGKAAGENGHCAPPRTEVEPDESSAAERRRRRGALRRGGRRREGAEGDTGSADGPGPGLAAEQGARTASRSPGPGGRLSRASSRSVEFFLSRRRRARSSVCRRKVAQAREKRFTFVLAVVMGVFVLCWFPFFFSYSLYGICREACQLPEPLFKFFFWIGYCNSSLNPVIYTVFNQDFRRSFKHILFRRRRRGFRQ
T1 sequence (P19328 whole entry): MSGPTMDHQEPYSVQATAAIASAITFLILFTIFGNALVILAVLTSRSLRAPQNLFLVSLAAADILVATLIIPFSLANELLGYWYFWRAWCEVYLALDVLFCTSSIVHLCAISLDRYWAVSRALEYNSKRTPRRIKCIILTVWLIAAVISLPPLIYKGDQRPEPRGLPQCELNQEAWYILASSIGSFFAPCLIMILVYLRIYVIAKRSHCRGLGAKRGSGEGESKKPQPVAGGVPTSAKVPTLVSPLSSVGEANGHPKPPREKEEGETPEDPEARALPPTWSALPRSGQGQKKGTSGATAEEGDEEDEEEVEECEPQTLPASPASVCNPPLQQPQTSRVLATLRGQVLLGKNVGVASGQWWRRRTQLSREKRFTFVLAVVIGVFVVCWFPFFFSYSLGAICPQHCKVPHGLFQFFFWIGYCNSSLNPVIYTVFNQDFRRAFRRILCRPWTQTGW
T1 sequence (P22909 whole entry): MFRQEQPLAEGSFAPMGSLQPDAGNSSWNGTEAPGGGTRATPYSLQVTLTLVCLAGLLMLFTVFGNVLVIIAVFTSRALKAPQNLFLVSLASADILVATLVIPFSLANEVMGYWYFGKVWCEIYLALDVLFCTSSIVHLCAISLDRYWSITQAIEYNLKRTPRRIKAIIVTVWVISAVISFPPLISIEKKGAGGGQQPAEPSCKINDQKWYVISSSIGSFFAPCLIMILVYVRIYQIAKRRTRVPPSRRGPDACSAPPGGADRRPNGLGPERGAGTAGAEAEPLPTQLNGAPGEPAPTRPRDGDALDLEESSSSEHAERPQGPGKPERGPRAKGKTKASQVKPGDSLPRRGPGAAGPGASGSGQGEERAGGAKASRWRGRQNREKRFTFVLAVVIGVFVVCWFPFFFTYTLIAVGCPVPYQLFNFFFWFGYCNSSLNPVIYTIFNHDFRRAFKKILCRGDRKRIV
The experiment is described as follows: Alpha-2 adrenergic receptor antagonist activity against agonist (clonidine) in isolated rat vas deferens. It is filed as functional, tissue-based.

Experiment [2] deals with T2, Adrenergic receptor alpha-1 (Rattus norvegicus, UniProt P15823+P23944+P43140).
T2 sequence (P15823 whole entry): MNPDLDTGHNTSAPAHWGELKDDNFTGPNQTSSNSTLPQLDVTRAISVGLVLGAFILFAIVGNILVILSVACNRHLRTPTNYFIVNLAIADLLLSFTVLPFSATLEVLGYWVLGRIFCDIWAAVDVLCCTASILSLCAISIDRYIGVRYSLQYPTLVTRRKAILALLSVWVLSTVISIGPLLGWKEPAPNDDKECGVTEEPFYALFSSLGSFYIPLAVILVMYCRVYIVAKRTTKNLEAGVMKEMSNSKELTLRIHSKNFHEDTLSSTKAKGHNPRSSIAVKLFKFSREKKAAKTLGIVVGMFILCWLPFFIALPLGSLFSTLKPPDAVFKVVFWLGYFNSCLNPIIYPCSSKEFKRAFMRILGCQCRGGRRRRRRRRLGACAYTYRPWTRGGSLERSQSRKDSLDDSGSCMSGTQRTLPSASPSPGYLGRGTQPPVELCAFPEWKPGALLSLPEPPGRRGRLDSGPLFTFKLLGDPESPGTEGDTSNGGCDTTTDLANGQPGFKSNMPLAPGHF
T2 sequence (P23944 whole entry): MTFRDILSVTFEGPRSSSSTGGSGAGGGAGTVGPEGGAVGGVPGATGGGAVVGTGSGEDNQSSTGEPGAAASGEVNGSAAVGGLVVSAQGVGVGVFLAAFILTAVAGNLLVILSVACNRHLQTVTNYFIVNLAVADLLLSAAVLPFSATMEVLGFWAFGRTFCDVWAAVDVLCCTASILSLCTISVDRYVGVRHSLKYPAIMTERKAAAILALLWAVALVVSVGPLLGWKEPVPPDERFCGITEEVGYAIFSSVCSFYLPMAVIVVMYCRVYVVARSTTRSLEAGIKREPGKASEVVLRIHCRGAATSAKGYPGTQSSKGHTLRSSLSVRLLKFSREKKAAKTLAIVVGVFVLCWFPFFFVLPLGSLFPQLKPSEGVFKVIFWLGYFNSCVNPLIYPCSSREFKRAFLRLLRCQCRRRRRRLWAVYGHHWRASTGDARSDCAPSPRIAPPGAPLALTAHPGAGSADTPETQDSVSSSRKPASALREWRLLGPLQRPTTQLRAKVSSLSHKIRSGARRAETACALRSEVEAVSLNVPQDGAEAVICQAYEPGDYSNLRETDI
T2 sequence (P43140 whole entry): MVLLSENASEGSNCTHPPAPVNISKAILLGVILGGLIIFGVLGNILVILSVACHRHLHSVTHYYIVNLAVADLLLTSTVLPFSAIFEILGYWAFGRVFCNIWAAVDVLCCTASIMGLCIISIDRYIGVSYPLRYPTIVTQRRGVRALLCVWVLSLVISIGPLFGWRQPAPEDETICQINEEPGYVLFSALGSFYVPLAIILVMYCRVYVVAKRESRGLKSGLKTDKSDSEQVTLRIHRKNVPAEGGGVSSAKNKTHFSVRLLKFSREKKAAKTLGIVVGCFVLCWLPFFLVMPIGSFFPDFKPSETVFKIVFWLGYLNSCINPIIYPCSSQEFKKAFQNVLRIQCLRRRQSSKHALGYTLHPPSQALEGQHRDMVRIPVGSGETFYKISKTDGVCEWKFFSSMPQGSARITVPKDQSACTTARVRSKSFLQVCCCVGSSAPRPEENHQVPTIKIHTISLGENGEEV
The experiment is described as follows: Alpha-1 adrenergic receptor antagonist activity against agonist (norepinephrine) in isolated rat vas deferens. The format is functional, tissue-based.

For `COc1cccc(OC)c1OCCNCC1COc2ccccc2O1.Cl` (centres undefined) [2- (2,6-DIMETHOXYPHENOXYETHYL)AMINOMETHYL-1,4-BENZODIOXANE HYDROCHLORIDE (WB 4101)], the figures for the pA2 in experiment [1] and in experiment [2] were 6.29 and 8.83, respectively.

In the case of `COc1cccc(OC)c1OCCNCC1CSc2ccccc2O1.Cl` (centres undefined) [BENOXATHIAN HYDROCHLORIDE], the results for the pA2 in experiment [1] and in experiment [2] were 6.26 and 9.26, respectively.

The values above are taken from ChEMBL document CHEMBL1122523, “2-[[[2-(2,6-Dimethoxyphenoxy)ethyl]amino]-methyl] -1,4-benzoxathian: a new antagonist with high potency and selectivity toward alpha 1-adrenoreceptors” (J Med Chem, 1984).
